For one experiment, the target named is T1, PPM1D1–420 (Homo sapiens, UniProt O15297).
T1 construct: PPM1D1–420 was PCR-amplified from the synthesized gene with BsaI sites; His(6)-SUMO (N, cleaved yes); made in house; host or cells: E. coli BL21 (DE3)
T1 sequence (O15297 1-420): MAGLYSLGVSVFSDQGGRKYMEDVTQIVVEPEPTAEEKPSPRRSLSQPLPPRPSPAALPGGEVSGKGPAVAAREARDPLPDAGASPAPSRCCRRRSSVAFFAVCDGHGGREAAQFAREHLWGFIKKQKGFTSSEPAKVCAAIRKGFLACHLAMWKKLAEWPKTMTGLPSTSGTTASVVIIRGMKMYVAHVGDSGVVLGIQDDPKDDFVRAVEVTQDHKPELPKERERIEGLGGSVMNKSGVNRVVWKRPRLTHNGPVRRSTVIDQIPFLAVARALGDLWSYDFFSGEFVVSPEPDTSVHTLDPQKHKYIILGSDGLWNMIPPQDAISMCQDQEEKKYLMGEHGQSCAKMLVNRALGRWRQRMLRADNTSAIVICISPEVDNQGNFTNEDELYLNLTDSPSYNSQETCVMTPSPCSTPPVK
As to the kind of experiment: Differential scanning calorimetry (DSC). In kind it is binding. How it is done: (§1) DSC thermograms were recorded in MicroCal DSC from Malvern with an autosampler. For DSC experiments the purified protein constructs were extensively dialyzed against 25 mM HEPES pH 7.5, 10 mM MgCl2, 150 mM NaCl and 1 mM TCEP. The experiments were performed using 0.4 mg/mL concentration of wild-type or mutant protein (8.5–8.9 µM), with and without GSK2830371 compound at 40 µM and 2% DMSO (v/v). The respective reference scans were run under identical DSC set up conditions and subtracted from each sample scan. The program was run in a continuous acquisition mode from 25 °C to 90 °C at a rate of 120 °C/h The heat capacity curves and midpoint temperature (Tm) were analyzed using Origin 7.0 software.

Another experiment concerns the target T2, PPM1DΔflap (Homo sapiens, UniProt O15297, DEL219-231/DEL235-284/E287S/S285N).
T2 construct: PPM1D1–218-GGSNGS-288–420 (PPM1D∆flap); His(6)-SUMO (N, cleaved yes); made in house; host or cells: E. coli BL21 (DE3)
T2 sequence (O15297 with tags, fused parts or gaps DEL219-231/DEL235-284/S285N/E287S): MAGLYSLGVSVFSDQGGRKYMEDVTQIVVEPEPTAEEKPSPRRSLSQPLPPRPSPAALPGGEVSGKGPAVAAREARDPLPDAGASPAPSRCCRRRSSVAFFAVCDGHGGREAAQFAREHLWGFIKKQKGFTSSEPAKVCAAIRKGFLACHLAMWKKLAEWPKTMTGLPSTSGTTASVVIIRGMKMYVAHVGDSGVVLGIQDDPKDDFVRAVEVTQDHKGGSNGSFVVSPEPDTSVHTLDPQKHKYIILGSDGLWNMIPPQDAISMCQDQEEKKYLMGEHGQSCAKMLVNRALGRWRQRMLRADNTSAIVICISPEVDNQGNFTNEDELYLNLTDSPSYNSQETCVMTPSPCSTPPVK
Put plainly: Differential scanning calorimetry (DSC). To be noted: Supplementary Fig. 5B. In kind it is binding. As for the experimental part: as §1
In general terms: DSC measures the heat that a sample takes up or gives off during a temperature scan.

Where [1] appears, read: source data Fig 3C, with GSK, in °C (unit assumed).

In the case of `Cc1ncc(Cl)cc1NCc1ccc(C(=O)N[C@@H](CC2CCCC2)C(=O)NC2CC2)s1` [GSK2830371], the ΔTm at 40 µM on PPM1D1–420 (PPM1D1–420, 40 µM compound, read-out: thermal shift by DSC) was determined as 8 °C. For the same compound, on PPM1D1–420 (Sup Fig 2D, protein with GSK vs WT alone, trial 1), the “DSC Trial 1 (melting temperature)” value is on record as 62.26 ˚C. Also, the “DSC Trial 2 (melting temperature)” value on PPM1D1–420 (Sup Fig 2D, protein with GSK vs WT alone, trial 2) is on record as 62.33 ˚C. In addition, the “DSC Trial 3 (melting temperature)” value on PPM1D1–420 (Sup Fig 2D, protein with GSK vs WT alone, trial 3) is recorded as 62.14 ˚C. Moreover, the “DSC Average (melting temperature)” value on PPM1D1–420 (Sup Fig 2D, protein with GSK, average of trials) was 62.2433 ˚C. On PPM1D1–420 (setting [1]), the “DSC Average (Tm)” value is 62.2433, the “DSC Trial 1 (Tm)” value amounted to 62.26, the “DSC Trial 2 (Tm)” value is recorded as 62.33 and the “DSC Trial 3 (Tm)” value stood at 62.14. Also, the “thermal shift by DSC” value at PPM1DΔflap is “+8.5 °C”.
